Experimental data from US10953016B2, “Solid dosage form containing quinazoline derivative” (Shionogi & Co., Ltd., priority 2017, dated 2021).
Structures can show the parent of a compound that is named as a salt.

Columns and labels:
Type in all cases: physicochemical
[1] = Influence of light wavelength on related substances in solution
Procedure: In order to research the influence of light of the compound represented by formula (I), the amount of the related substances was measured after illumination with constant quantity of light.
A fixed amount of monohydrochloride of the compound represented by formula (I) was collected and dissolved in a mix of pH7 buffer:methanol:acetonitrile=38:31:31 to prepare a solution of 800 μg/mL. The solution was sealed in glass bottles. Thereafter, the glass bottles containing solution were irradiated with light of different wavelengths by a light irradiator (CRM-FA manufactured by Nippon Spectroscopy) and the amounts of related substances were measured.
The amount of the related substances was measured by liquid chromatography by employing the following method and conditions. The main related substance was the E-form of the optical isomer of the compound represented by formula (I). Therefore, in the analysis of the related substance amount, the E-form of the optical isomer of the compound represented by formula (I) was used as a reference for the analysis. • Detector: ultraviolet absorptiometer (measurement wavelength: 225 nm) • Column: Cadenza CW-C18 3μ, 4.6×150 mm (Imtakt) • Column temperature: constant temperature around 35° C. • Mobile Phase A: 10 mM ammonium acetate, […]

[2] = Water sorption-desorption isothermal measurement; details: ratio of increased moisture mass
Description: Water Sorption-desorption Isothermal Measurement

[3] = Light exposure test of crystals (E isomer by HPLC); details: for E isomer (Retention time 38 minutes) Increased amount: light exposed sample minus dark control
[4] = Test of solubility in water for injection; details: stirred at 37° C. for 1 hour
Procedure: 1. Formulation of Calibration Curve
First, 5 mg of monohydrochloride crystalline form I of the compound represented by formula (I) was precisely weighed and dissolved in a mixed solution of acetonitrile:water (1:1), and thus a 500 μg/mL solution was obtained. The obtained solution was diluted with a mixed solution of acetonitrile:water (1:1) such that the concentrations of the compound were 5 and 50 μg/mL, and a standard calibration curve was prepared. The same operation was carried out for monohydrochloride crystalline form II, monohydrochloride crystalline form V, monohydrochloride crystalline form VI, mono-p-toluenesulfonate crystalline form I, and free base crystals.
2. Formulation of Sample Solution
First, 1 mg of monohydrochloride crystalline form I of the compound represented by formula (I) was precisely weighed and transferred to a vial having a volume of 4 mL. Then, 1 mL of water (water for injection) was added, and the mixture was stirred at 37° C. for 1 hour. After being stirred, this suspension was filtered, and the peak area using a solution obtained by diluting the filtrate two-fold with a mixed solution of acetonitrile:water (1:1) as a sample. The concentration was calculated using the peak area and the calibration curve prepared above. The same operation was carried out for monohydrochloride crystalline form II, monohydrochloride crystalline form V, monohydrochloride crystalline form VI, mono-p-toluenesulfonate crystalline form I, and free base crystals.

[5] = Test of solubility in organic solvent; details: stirred at 22° C. for 4 hours, supernatant; for Concentration (% by weight) 2-Propanol: suspended in 2-propanol; for Concentration (% by weight) Acetone: suspended in acetone; for Concentration (% by weight) Ethyl acetate: suspended in ethyl acetate
Procedure: The monohydrochloride crystalline form I, monohydrochloride crystalline form V, and free base crystals of the compound represented by formula (I) were each suspended in 2-propanol, acetone, and ethyl acetate, and stirred at 22° C. for 4 hours, and the concentrations of supernatants were measured.

[6] = listed as mono-p-toluenesulfonate crystalline form I
[7] = listed as Monohydrochloride form crystal VI
[8] = listed as Monohydrochloride form crystal V

Row | SMILES | Ratio of increased mass [2] | E isomer (Retention time 38 minutes) Light exposed sample [3] | E isomer (Retention time 38 minutes) Increased amount [3] | Concentration (% by weight) 2-Propanol [5] | Concentration (% by weight) Acetone [5] | Concentration (% by weight) Ethyl acetate [5] | E isomer (Retention time 38 minutes) Dark control [3] | Solubility in water for injection [4] | also measured
1 | CC#C/C(=N\OC[C@H]1COCCN1)c1ccc2ncnc(Nc3ccc(OCc4cccc(F)c4)c(Cl)c3)c2c1 | – | – | – | – | – | – | – | – | Total amount of related substances, wavelength of light higher than 450 nm ([1]; 800 μg/mL solution in pH7 buffer:methanol:acetonitrile=38:31:31, light higher than 450 nm): increased little; Total amount of related substances, wavelength of light shorter than 450 nm ([1]; 800 μg/mL solution in pH7 buffer:methanol:acetonitrile=38:31:31, light shorter than 450 nm): increased as the wavelength decreased
2 | CC#C/C(=N\OC[C@H]1COCCN1)c1ccc2ncnc(Nc3ccc(OCc4cccc(F)c4)c(Cl)c3)c2c1 [Free base crystal] | About 1.0% | 2.59 area % | 2.59 area % | 0.49 % by weight | 8.1 % by weight | 3.3 % by weight | – | – | Solubility in water for injection ([4]; listed as free base crystals): not dissolved in water for injection at all
3 | CC#C/C(=N\OC[C@H]1COCCN1)c1ccc2ncnc(Nc3ccc(OCc4cccc(F)c4)c(Cl)c3)c2c1 [Mono-p-toluenesulfonate crystalline form I] | About 1.4% | 32.86 area % | 32.76 area % | – | – | – | 0.10 area % | high solubilities | Ratio of increased mass [2, 6]: small; E isomer (Retention time 38 minutes) Increased amount [3, 6]: about 33 area %
4 | CC#C/C(=N\OC[C@H]1COCCN1)c1ccc2ncnc(Nc3ccc(OCc4cccc(F)c4)c(Cl)c3)c2c1 [Monohydrochloride crystalline form II] | About 0.3% | 1.21 area % | −0.23 area % | – | – | – | 1.44 area % | high solubilities | Ratio of increased mass ([2]; listed as monohydrochloride crystalline form H): small
5 | CC#C/C(=N\OC[C@H]1COCCN1)c1ccc2ncnc(Nc3ccc(OCc4cccc(F)c4)c(Cl)c3)c2c1 [Monohydrochloride crystalline form I] | About 0.8% | 4.41 area % | 3.78 area % | 0.03 % by weight | 0.08 % by weight | 0.01 % by weight | 0.63 area % | high solubilities | Ratio of increased mass ([2]; listed as monohydrochloride crystalline form I): small
6 | CC#C/C(=N\OC[C@H]1COCCN1)c1ccc2ncnc(Nc3ccc(OCc4cccc(F)c4)c(Cl)c3)c2c1 [Monohydrochloride crystalline form VI] | About 0.5% | – | – | – | – | – | – | high solubilities | Ratio of increased mass ([2]; listed as monohydrochloride crystalline form VI): small; E isomer (Retention time 38 minutes) Dark control [3, 7]: 1.16 area %; E isomer (Retention time 38 minutes) Increased amount [3, 7]: 0.64 area %; E isomer (Retention time 38 minutes) Light exposed sample [3, 7]: 1.80 area %
7 | CC#C/C(=N\OC[C@H]1COCCN1)c1ccc2ncnc(Nc3ccc(OCc4cccc(F)c4)c(Cl)c3)c2c1 [Monohydrochloride crystalline form V] | About 1.7% | – | – | 0.01 % by weight | 0.02 % by weight | 0.00 % by weight | – | high solubilities | Ratio of increased mass ([2]; listed as monohydrochloride crystalline form V): small; E isomer (Retention time 38 minutes) Dark control [3, 8]: 0.13 area %; E isomer (Retention time 38 minutes) Increased amount [3, 8]: 1.06 area %; E isomer (Retention time 38 minutes) Light exposed sample [3, 8]: 1.19 area %
8 | CC#C/C(=N\OC[C@H]1COCCN1)c1ccc2ncnc(Nc3ccc(OCc4cccc(F)c4)c(Cl)c3)c2c1 [Monosulfate crystal] | About 3.3% | – | – | – | – | – | – | – | Ratio of increased mass ([2]; listed as monosulfate crystals): about 3.3%
